# Test results: US20230139171A1 (SITA Information Networking Computing UK Limited, priority 2019, published 2023)
# Legend:
# Assay type in all cases: cell-based
# human TLR7 = biological target: T1, human TLR7 (Homo sapiens, UniProt Q9NYK1); assay: TLR7 inhibition reporter assay (HEK-Blue cells, SEAP reporter, gardiquimod stimulation); conditions: HEK-Blue cells overexpressing human TLR7, SEAP reporter, gardiquimod 7.5 μM; read-out: TLR7 IC50
# T1 construct: host or cells: HEK-Blue cells
# T1 sequence (Q9NYK1 27-1049): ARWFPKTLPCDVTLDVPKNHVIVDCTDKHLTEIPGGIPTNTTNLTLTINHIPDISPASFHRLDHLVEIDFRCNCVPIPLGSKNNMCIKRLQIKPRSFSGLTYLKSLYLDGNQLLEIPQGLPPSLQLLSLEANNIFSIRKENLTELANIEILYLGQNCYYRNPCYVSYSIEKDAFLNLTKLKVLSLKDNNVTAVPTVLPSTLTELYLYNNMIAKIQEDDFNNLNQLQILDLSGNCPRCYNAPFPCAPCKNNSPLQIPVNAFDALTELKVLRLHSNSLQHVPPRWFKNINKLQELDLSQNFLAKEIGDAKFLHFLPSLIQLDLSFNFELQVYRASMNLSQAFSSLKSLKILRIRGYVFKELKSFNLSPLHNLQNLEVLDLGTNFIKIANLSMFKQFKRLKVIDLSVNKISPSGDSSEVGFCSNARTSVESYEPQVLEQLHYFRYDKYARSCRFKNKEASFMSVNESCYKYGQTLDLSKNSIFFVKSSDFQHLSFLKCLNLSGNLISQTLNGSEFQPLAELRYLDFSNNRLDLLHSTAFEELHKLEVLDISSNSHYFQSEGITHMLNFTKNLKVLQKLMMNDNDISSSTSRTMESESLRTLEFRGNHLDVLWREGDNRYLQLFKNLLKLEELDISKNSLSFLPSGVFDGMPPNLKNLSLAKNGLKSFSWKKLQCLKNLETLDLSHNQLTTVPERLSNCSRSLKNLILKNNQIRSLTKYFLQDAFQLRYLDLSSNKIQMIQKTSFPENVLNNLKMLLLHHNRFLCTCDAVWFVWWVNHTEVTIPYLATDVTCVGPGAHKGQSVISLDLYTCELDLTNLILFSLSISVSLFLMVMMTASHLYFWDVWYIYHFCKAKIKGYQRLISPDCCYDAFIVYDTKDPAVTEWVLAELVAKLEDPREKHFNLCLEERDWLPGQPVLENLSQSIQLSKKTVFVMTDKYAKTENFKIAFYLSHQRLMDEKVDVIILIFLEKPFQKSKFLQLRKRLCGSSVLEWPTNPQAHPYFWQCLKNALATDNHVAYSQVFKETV
# Outline: (§1)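 Human TLR7/8/9 HEK-Blue reporter lines; dose range 0.05 nM–50 μM; 30 min RT preincubation; stimulus gardiquimod 7.5 μM / R848 15.9 μM / ODN2006 5 nM respectively; 22 h, 37 °C; SEAP detected colorimetrically.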
# human TLR8 = biological target: T2, human TLR8 (Homo sapiens, UniProt Q9NR97); assay: TLR8 inhibition reporter assay (HEK-Blue cells, SEAP reporter, R848 stimulation); conditions: HEK-Blue cells overexpressing human TLR8, SEAP reporter, R848 15.9 μM; read-out: TLR8 IC50
# T2 construct: host or cells: HEK-Blue cells
# T2 sequence (Q9NR97 27-1041): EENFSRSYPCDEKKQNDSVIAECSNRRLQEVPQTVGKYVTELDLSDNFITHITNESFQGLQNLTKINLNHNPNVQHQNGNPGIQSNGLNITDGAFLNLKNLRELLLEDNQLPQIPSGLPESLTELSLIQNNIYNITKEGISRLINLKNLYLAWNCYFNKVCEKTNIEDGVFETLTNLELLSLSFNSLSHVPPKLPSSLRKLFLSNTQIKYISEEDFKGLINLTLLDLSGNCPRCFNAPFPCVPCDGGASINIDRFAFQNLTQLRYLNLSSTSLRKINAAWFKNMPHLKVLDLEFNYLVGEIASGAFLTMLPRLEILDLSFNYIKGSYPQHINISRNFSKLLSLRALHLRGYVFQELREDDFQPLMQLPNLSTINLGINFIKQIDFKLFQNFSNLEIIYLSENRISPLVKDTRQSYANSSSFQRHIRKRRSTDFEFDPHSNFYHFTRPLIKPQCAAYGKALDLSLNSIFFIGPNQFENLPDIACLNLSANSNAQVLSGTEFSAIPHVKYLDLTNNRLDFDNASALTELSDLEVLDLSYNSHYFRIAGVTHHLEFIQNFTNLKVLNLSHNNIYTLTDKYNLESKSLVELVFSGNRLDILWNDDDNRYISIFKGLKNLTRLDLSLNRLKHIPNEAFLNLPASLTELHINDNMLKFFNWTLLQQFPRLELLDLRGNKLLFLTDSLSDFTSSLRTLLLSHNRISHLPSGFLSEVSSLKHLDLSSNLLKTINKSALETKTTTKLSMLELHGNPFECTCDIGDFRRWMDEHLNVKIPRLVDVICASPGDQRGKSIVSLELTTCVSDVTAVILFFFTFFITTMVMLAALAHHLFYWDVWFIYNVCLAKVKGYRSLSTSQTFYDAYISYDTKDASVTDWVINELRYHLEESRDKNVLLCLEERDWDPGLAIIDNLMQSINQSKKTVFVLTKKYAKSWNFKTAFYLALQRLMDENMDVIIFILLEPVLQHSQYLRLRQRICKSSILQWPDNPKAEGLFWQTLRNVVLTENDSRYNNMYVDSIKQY
# Outline: as §1
# human TLR9 = biological target: T3, human TLR9 (Homo sapiens, UniProt Q9NR96); assay: TLR9 inhibition reporter assay (HEK-Blue cells, SEAP reporter, ODN2006 stimulation); conditions: HEK-Blue cells overexpressing human TLR9, SEAP reporter, ODN2006 5 nM
# T3 construct: host or cells: HEK-Blue cells
# T3 sequence (Q9NR96 26-1032): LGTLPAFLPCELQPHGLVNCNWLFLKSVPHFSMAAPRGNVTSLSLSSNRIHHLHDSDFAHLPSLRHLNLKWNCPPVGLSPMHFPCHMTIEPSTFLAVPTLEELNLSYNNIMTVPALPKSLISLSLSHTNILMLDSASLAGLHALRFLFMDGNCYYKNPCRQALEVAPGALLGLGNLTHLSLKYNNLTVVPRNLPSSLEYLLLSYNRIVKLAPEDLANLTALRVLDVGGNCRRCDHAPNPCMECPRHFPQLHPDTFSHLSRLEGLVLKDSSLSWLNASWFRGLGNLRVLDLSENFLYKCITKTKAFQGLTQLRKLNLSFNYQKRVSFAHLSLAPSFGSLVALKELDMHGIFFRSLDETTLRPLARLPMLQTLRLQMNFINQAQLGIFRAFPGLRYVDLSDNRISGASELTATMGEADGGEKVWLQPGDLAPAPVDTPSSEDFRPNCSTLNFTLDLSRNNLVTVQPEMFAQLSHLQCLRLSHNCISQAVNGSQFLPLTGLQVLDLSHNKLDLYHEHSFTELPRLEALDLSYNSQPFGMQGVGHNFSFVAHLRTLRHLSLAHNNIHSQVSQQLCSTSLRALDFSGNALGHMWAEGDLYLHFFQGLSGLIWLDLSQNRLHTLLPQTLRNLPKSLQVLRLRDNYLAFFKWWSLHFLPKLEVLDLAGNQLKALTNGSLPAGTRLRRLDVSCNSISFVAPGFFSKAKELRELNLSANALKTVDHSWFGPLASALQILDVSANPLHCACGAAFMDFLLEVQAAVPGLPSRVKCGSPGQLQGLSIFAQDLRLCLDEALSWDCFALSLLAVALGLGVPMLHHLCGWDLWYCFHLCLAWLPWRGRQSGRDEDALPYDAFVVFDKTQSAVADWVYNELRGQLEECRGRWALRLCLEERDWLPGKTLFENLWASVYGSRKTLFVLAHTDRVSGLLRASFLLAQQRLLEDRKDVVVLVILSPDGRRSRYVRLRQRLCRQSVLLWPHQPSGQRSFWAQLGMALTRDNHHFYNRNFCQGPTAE
# Outline: as §1
Compound,IC50 (human TLR7) [µM],IC50 (human TLR8) [µM],IC50 (human TLR9) [µM]
"Cc1c(-c2[nH]c3sc(C4CCC(NC5COC5)CC4)nc3c2C(C)C)cn2ncnc2c1C (single isomer, unassigned) [Example 185, N-(4-(5-(7,8-dimethyl-[1,2,4]triazolo[1,5-a]pyridin-6-yl)-6-isopropyl-4H-pyrrolo[3,2-d]thiazol-2-yl)cyclohexyl)oxetan-3-amine]",0.00742,0.00338,23
"Cc1c(-c2[nH]c3sc(N4C[C@@H](C)N(CC(N)=O)C[C@@H]4C)nc3c2C(C)C)cn2ncnc2c1C [Example 338, 2-((2R,5S)-4-(5-(7,8-dimethyl-[1,2,4]triazolo[1,5-a]pyridin-6-yl)-6-isopropyl-4H-pyrrolo[3,2-d]thiazol-2-yl)-2,5-dimethylpiperazin-1-yl)acetamide]",0.0101,0.0311,45.6
"COc1cc(-c2[nH]c3sc(C4CCN(CC(=O)N(C)C)CC4)nc3c2C(C)C)cn2ncnc12 [Example 7, 2-(4-(6-isopropyl-5-(8-methoxy-[1,2,4]triazolo[1,5-a]pyridin-6-yl)-4H-pyrrolo[3,2-d]thiazol-2-yl)piperidin-1-yl)-N,N-dimethylacetamide]",0.0078,0.00659,5.47
"Cc1c(-c2[nH]c3sc(C(=O)NC4CCC(N(C)C)CC4)nc3c2C(C)C)cn2ncnc2c1C (single isomer, unassigned) [Example 368, 5-(7,8-dimethyl-[1,2,4]triazolo[1,5-a]pyridin-6-yl)-N-(4-(dimethylamino)cyclohexyl)-6-isopropyl-4H-pyrrolo[3,2-d]thiazole-2-carboxamide]",0.0105,0.0281,5.46
"Cc1c(-c2[nH]c3sc(C4CCC(NC5CCS(=O)(=O)C5)CC4)nc3c2C(C)C)cn2ncnc2c1C (single isomer, unassigned) [Example 232, 3-((4-(5-(7,8-dimethyl-[1,2,4]triazolo[1,5-a]pyridin-6-yl)-6-isopropyl-4H-pyrrolo[3,2-d]thiazol-2-yl)cyclohexyl)amino)tetrahydrothiophene 1,1-dioxide]",0.00419,0.00787,> 50
"Cc1c(-c2[nH]c3sc(C4CCN(CC(C)C)CC4)nc3c2C(C)C)cn2ncnc2c1C [Example 52, 5-(7,8-dimethyl-[1,2,4]triazolo[1,5-a]pyridin-6-yl)-2-(1-isobutylpiperidin-4-yl)-6-isopropyl-4H-pyrrolo[3,2-d]thiazole]",0.0029,0.00422,18
"Cc1c(-c2[nH]c3sc(C(=O)N4CCS(=O)(=O)CC4)nc3c2C(C)C)cn2ncnc2c1C [Example 373, (5-(7,8-dimethyl-[1,2,4]triazolo[1,5-a]pyridin-6-yl)-6-isopropyl-4H-pyrrolo[3,2-d]thiazol-2-yl)(1,1-dioxidothiomorpholino)methanone]",0.0819,0.0345,42.1

# Molecules with a lower IC50 (human TLR7), results first:
IC50 (human TLR7) [µM],IC50 (human TLR8) [µM],IC50 (human TLR9) [µM],Compound
0.00194,0.00314,40.7,"CCC1(NC2CCC(c3nc4c(C(C)C)c(-c5cc(OC)c6ncnn6c5)[nH]c4s3)CC2)COC1 (single isomer, unassigned) [Example 94, 3-ethyl-N-(4-(6-isopropyl-5-(8-methoxy-[1,2,4]triazolo[1,5-a]pyridin-6-yl)-4H-pyrrolo[3,2-d]thiazol-2-yl)cyclohexyl)oxetan-3-amine]"
0.00184,0.0195,45.4,"Cc1c(-c2[nH]c3sc(C4CCN(S(C)(=O)=O)CC4)nc3c2C(C)C)cn2ncnc2c1C [Example 45, 5-(7,8-dimethyl-[1,2,4]triazolo[1,5-a]pyridin-6-yl)-6-isopropyl-2-(1-(methylsulfonyl)piperidin-4-yl)-4H-pyrrolo[3,2-d]thiazole]"
0.00153,0.00098,7.77,"COc1cc(-c2[nH]c3sc(C4CCC(N5CC6(C5)CS(=O)(=O)C6)CC4)nc3c2C(C)C)cn2ncnc12 (single isomer, unassigned) [Example 96, 6-(4-(6-isopropyl-5-(8-methoxy-[1,2,4]triazolo[1,5-a]pyridin-6-yl)-4H-pyrrolo[3,2-d]thiazol-2-yl)cyclohexyl)-2-thia-6-azaspiro[3.3]heptane 2,2-dioxide]"
0.00136,0.0187,25.4,"Cc1c(-c2[nH]c3sc(C4CCC(N5CC(O)(C(F)(F)F)C5)CC4)nc3c2C(C)C)cn2ncnc2c1C (single isomer, unassigned) [Example 236, 1-(4-(5-(7,8-dimethyl-[1,2,4]triazolo[1,5-a]pyridin-6-yl)-6-isopropyl-4H-pyrrolo[3,2-d]thiazol-2-yl)cyclohexyl)-3-(trifluoromethyl)azetidin-3-ol]"
0.00127,0.00101,4.77,"Cc1cc(-c2[nH]c3sc(C4CCN(CC5(C)COC5)CC4)nc3c2C(C)C)cn2ncnc12 [Example 23, 6-isopropyl-5-(8-methyl-[1,2,4]triazolo[1,5-a]pyridin-6-yl)-2-(1-((3-methyloxetan-3-yl)methyl)piperidin-4-yl)-4H-pyrrolo[3,2-d]thiazole]"
